Experimental data reported in patent publication US10988523B2, “Modified lipidated Relaxin B chain peptides and their therapeutic use” (Sanofi, priority 2018, dated 2021).
*1 amine or outer side, *2 acyl side, *3 side chain or, on linkers, in order; H or OH if unused. Where a SMILES comes first, the peptide text is derived from it. Side-chain parts run from the residue outwards. [ ]: non-standard residue; d: D form. The star is where a group is joined. X3 = CCCCCCCCCCCCCCCC(=O)N[C@@H](CCC(=O)N[C@@H](CCC(=O)N[C@@H](CCC(=O)N[C@@H](CCC(=O)NCCCC[C@H](NC(=O)CCC(=O)NCCCOCCOCCOCCCNC(=O)CCC(=O)NCCCOCCOCCOCCCN*)C(N)=O)C(=O)O)C(=O)O)C(=O)O)C(=O)O; Lys(Me3) = C[N+](C)(C)CCCC[C@H](N)C(=O)O; γGlu = O=C(O)[C@H](CCC(=O)[*:2])N[*:1]; Arg(Me) = CNC(=N)NCCC[C@H](N)C(=O)O; Palmitoyl = CCCCCCCCCCCCCCCC(=O)*; αMeK = C[C@](N)(CCCCN)C(=O)O; Nle = CCCC[C@H](N)C(=O)O; AEEA = NCCOCCOCC(=O)O; Aib = CC(C)(N)C(=O)O

Target: T1, RXFP1 (Homo sapiens, UniProt Q9HBX9)
T1 construct: OVCAR5 cells expressing endogenous RXFP1; endogenous in cells; host or cells: OVCAR5 cells
T1 sequence (Q9HBX9 1-757): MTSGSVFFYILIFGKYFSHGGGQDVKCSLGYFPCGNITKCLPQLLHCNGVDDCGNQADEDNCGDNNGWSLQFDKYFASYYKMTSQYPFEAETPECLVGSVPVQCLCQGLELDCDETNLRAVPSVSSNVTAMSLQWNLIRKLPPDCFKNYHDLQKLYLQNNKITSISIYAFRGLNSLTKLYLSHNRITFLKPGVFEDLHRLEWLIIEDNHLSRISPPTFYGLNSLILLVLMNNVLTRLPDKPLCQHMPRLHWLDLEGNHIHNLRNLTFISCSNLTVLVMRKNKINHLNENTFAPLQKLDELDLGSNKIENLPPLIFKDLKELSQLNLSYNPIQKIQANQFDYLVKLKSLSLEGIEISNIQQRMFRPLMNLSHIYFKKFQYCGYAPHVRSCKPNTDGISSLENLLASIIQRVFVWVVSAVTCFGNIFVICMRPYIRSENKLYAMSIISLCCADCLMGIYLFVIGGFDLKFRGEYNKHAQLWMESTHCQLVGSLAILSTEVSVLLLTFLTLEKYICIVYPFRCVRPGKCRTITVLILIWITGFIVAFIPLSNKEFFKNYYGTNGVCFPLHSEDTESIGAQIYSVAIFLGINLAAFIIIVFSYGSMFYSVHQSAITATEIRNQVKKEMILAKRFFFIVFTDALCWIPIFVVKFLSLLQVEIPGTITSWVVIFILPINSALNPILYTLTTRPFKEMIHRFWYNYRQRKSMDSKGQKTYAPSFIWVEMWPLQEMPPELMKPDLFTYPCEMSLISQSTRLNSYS
Assay: OVCAR5 cAMP assay (HTRF), RXFP1 agonist activity
Assay type: cell-based
Settings: for EC50: OVCAR5 cells, cAMP HTRF, read-out: EC50 (nM), OVCAR 5 cells (cAMP); for Emax: OVCAR-5, maximal cAMP relative to H2-relaxin maximum (100%), read-out: EMax, OVCAR 5 cells (cAMP)
Outline: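 OVCAR5 cells (endogenous RXFP1) pretreated 40 min at 37° C with 1 mM IBMX, then exposed to peptides in serum-free medium for 30 min at 37° C. Lysate cAMP read by HTRF; EC50 from variable-slope sigmoidal fit; Emax as % of H2-relaxin maximal cAMP in same run.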

Row | EC50 | Emax | Compound
1 | 0.4 nM | 88% | CCCCCCCCCCCCCCCC(=O)N[C@@H](CCC(=O)N[C@@H](CCC(=O)N[C@@H](CCC(=O)N[C@@H](CCC(=O)NCCOCCOCC(=O)NCCOCCOCC(=O)NCCOCCOCC(=O)NCCOCCOCC(=O)NCCCC[C@H](NC(=O)[C@H](CCCCNC(C)=O)NC(=O)[C@H](CCCCN)NC(=O)[C@H](CCCNC(=N)N)NC(=O)[C@](C)(CCCCN)NC(=O)[C@H](CO)NC(=O)[C@H](Cc1ccccc1)NC(=O)[C@@H](NC(=O)[C@H](CO)NC(=O)[C@H](CCCC)NC(=O)CNC(=O)[C@H](CCC(=O)O)NC(=O)C(C)(C)NC(=O)C(C)(C)NC(=O)[C@@H](NC(=O)[C@H](CCCCNC(C)=O)NC(=O)[C@H](C)NC(=O)[C@H](CCCNC(=N)N)NC(=O)[C@@H](NC(=O)[C@H](CCCCN)NC(=O)[C@H](CCC(=O)O)NC(=O)[C@H](CCCNC(=N)N)NC(=O)CNC(=O)[C@H](CCC(=O)O)NC(=O)[C@H](CC(C)C)NC(C)=O)C(C)C)[C@@H](C)CC)[C@@H](C)O)C(N)=O)C(=O)O)C(=O)O)C(=O)O)C(=O)O [compound 140] (Ac-LEGREKVRAK(Ac)I[Aib][Aib]EG[Nle]STFS[αMeK]RKK(Ac)K([AEEA-AEEA-AEEA-AEEA-γGlu-γGlu-γGlu-γGlu-Palmitoyl])-NH2)
2 | 0.16 nM | 87% | CCCCCCCCCCCCCCCC(=O)N[C@@H](CCC(=O)N[C@@H](CCC(=O)N[C@@H](CCC(=O)N[C@@H](CCC(=O)NCCOCCOCC(=O)NCCOCCOCC(=O)NCCOCCOCC(=O)NCCOCCOCC(=O)NCCCC[C@H](NC(=O)[C@H](CCCCNC(C)=O)NC(=O)[C@H](CCCC[N+](C)(C)C)NC(=O)[C@H](CCCNC(=N)NC)NC(=O)[C@](C)(CCCCN)NC(=O)[C@H](CO)NC(=O)[C@H](Cc1c[nH]c2ccccc12)NC(=O)[C@@H](NC(=O)[C@H](CO)NC(=O)[C@H](CCCC)NC(=O)CNC(=O)[C@H](CCC(=O)O)NC(=O)C(C)(C)NC(=O)C(C)(C)NC(=O)[C@@H](NC(=O)[C@H](CCCCNC(C)=O)NC(=O)[C@H](C)NC(=O)[C@H](CCCNC(=N)N)NC(=O)[C@@H](NC(=O)[C@H](CCCCN)NC(=O)[C@H](CCC(=O)O)NC(=O)[C@H](CCCNC(=N)N)NC(=O)CNC(=O)[C@H](CCC(=O)O)NC(=O)[C@H](CC(C)C)NC(C)=O)C(C)C)[C@@H](C)CC)[C@@H](C)O)C(N)=O)C(=O)O)C(=O)O)C(=O)O)C(=O)O [compound 141] (Ac-LEGREKVRAK(Ac)I[Aib][Aib]EG[Nle]STWS[αMeK][Arg(Me)][Lys(Me3)]K(Ac)K([AEEA-AEEA-AEEA-AEEA-γGlu-γGlu-γGlu-γGlu-Palmitoyl])-NH2)
3 | 0.02 nM | 91% | CCCCCCCCCCCCCCCC(=O)N[C@@H](CCC(=O)N[C@@H](CCC(=O)N[C@@H](CCC(=O)N[C@@H](CCC(=O)NCCCC[C@H](NC(=O)CCC(=O)NCCCOCCOCCOCCCNC(=O)CCC(=O)NCCCOCCOCCOCCCNC(=O)[C@H](CCCCNC(C)=O)NC(=O)[C@H](CCCCN)NC(=O)[C@H](CCCNC(=N)N)NC(=O)[C@](C)(CCCCN)NC(=O)[C@H](CO)NC(=O)[C@H](Cc1ccccc1)NC(=O)[C@@H](NC(=O)[C@H](CO)NC(=O)[C@H](CCCC)NC(=O)CNC(=O)[C@H](CCC(=O)O)NC(=O)C(C)(C)NC(=O)C(C)(C)NC(=O)[C@@H](NC(=O)[C@H](CCCCNC(C)=O)NC(=O)[C@H](C)NC(=O)[C@H](CCCNC(=N)N)NC(=O)[C@@H](NC(=O)[C@H](CCCCN)NC(=O)[C@H](CCC(=O)O)NC(=O)[C@H](CCCNC(=N)N)NC(=O)CNC(=O)[C@H](CCC(=O)O)NC(=O)[C@H](CC(C)C)NC(C)=O)C(C)C)[C@@H](C)CC)[C@@H](C)O)C(N)=O)C(=O)O)C(=O)O)C(=O)O)C(=O)O [compound 142] (Ac-LEGREKVRAK(Ac)I[Aib][Aib]EG[Nle]STFS[αMeK]RKK(Ac)-X3)
